In patent publication US8192962B2, “Processes for detecting toxic substances” (Daikin Industries, Ltd., priority 2001, dated 2012):

Test system: Metabolism protein genes
Experiment: DNA chip mRNA expression in yeast, metabolism protein genes (Table 7)
Format: cell-based, Saccharomyces cerevisiae S288C
Procedure, shortened: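 Ratios compare mRNA levels in stressed and control S. cerevisiae. Each toxicant was applied for two hours to log-phase cultures at 25° C. at a sub-lethal, growth-inhibiting level; fluorescent cDNA (Cy3- or Cy5-dUTP) was hybridized to a genome-wide yeast chip for over 12 h at 65° C.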

What does the source list for `N#Cc1c(Cl)c(Cl)c(Cl)c(C#N)c1Cl` [(9), 2,4,5,6-tetrachloro-1,3-benzenedicarbonitrile]?
The level of expressed mRNA in the presence of chemical substance/The level of expressed mRNA in the absence of chemical substance (yeast gene YAL012W): 4.7; The level of expressed mRNA in the presence of chemical substance/The level of expressed mRNA in the absence of chemical substance (yeast gene YAL038W): 0.1; The level of expressed mRNA in the presence of chemical substance/The level of expressed mRNA in the absence of chemical substance (yeast gene YAL044C): 0.4; The level of expressed mRNA in the presence of chemical substance/The level of expressed mRNA in the absence of chemical substance (yeast gene YAL054C): 8.9; The level of expressed mRNA in the presence of chemical substance/The level of expressed mRNA in the absence of chemical substance (yeast gene YAR071W): 0.3; The level of expressed mRNA in the presence of chemical substance/The level of expressed mRNA in the absence of chemical substance (yeast gene YBL001C): 1.5; The level of expressed mRNA in the presence of chemical substance/The level of expressed mRNA in the absence of chemical substance (yeast gene YBL033C): 6.6; The level of expressed mRNA in the presence of chemical substance/The level of expressed mRNA in the absence of chemical substance (yeast gene YBL086C): 3.3; level of expressed mRNA in the presence/in the absence of chemical substance (yeast gene YBR003W): 1.0; level of expressed mRNA in the presence/in the absence of chemical substance (yeast gene YBR011C): 2.2; The level of expressed mRNA in the presence of chemical substance/The level of expressed mRNA in the absence of chemical substance (yeast gene YBR014C): 1.3; The level of expressed mRNA in the presence of chemical substance/The level of expressed mRNA in the absence of chemical substance (yeast gene YBR023C): 0.3; The level of expressed mRNA in the presence of chemical substance/The level of expressed mRNA in the absence of chemical substance (yeast gene YBR029C): 2.0; The level of expressed mRNA in the presence of chemical substance/The level of expressed mRNA in the absence of chemical substance (yeast gene YBR035C): 2.2; The level of expressed mRNA in the presence of chemical substance/The level of expressed mRNA in the absence of chemical substance (yeast gene YBR068C): 0.8; The level of expressed mRNA in the presence of chemical substance/The level of expressed mRNA in the absence of chemical substance (yeast gene YBR183W): 0.4; The level of expressed mRNA in the presence of chemical substance/The level of expressed mRNA in the absence of chemical substance (yeast gene YBR222C): 0.7; The level of expressed mRNA in the presence of chemical substance/The level of expressed mRNA in the absence of chemical substance (yeast gene YBR256C): 18.1; The level of expressed mRNA in the presence of chemical substance/The level of expressed mRNA in the absence of chemical substance (yeast gene YBR296C): 0.4; The level of expressed mRNA in the presence of chemical substance/The level of expressed mRNA in the absence of chemical substance (yeast gene YCL009C): 0.9; The level of expressed mRNA in the presence of chemical substance/The level of expressed mRNA in the absence of chemical substance (yeast gene YCL064C): 1.7; level of expressed mRNA in the presence/in the absence of chemical substance (yeast gene YCR010C): 0.9; level of expressed mRNA in the presence/in the absence of chemical substance (yeast gene YCR034W): 0.1; The level of expressed mRNA in the presence of chemical substance/The level of expressed mRNA in the absence of chemical substance (yeast gene YCR036W): 2.6; The level of expressed mRNA in the presence of chemical substance/The level of expressed mRNA in the absence of chemical substance (yeast gene YCR048W): 0.8; The level of expressed mRNA in the presence of chemical substance/The level of expressed mRNA in the absence of chemical substance (yeast gene YCR098C): 1.4; The level of expressed mRNA in the presence of chemical substance/The level of expressed mRNA in the absence of chemical substance (yeast gene YDL124W): 3.3; The level of expressed mRNA in the presence of chemical substance/The level of expressed mRNA in the absence of chemical substance (yeast gene YDR009W): 1.3; The level of expressed mRNA in the presence of chemical substance/The level of expressed mRNA in the absence of chemical substance (yeast gene YDR019C): 0.4; level of expressed mRNA in the presence/in the absence of chemical substance (yeast gene YDR050C): 0.4; level of expressed mRNA in the presence/in the absence of chemical substance (yeast gene YDR123C): 0.5; level of expressed mRNA in the presence/in the absence of chemical substance (yeast gene YDR178W): 0.9; level of expressed mRNA in the presence/in the absence of chemical substance (yeast gene YDR277C): 0.2; level of expressed mRNA in the presence/in the absence of chemical substance (yeast gene YDR284C): 0.9; level of expressed mRNA in the presence/in the absence of chemical substance (yeast gene YDR345C): 0.2; The level of expressed mRNA in the presence of chemical substance/The level of expressed mRNA in the absence of chemical substance (yeast gene YDR380W): 0.2; level of expressed mRNA in the presence/in the absence of chemical substance (yeast gene YDR400W): 1.1; level of expressed mRNA in the presence/in the absence of chemical substance (yeast gene YDR408C): 0.3; level of expressed mRNA in the presence/in the absence of chemical substance (yeast gene YDR483W): 0.4; The level of expressed mRNA in the presence of chemical substance/The level of expressed mRNA in the absence of chemical substance (yeast gene YDR487C): 2.7; The level of expressed mRNA in the presence of chemical substance/The level of expressed mRNA in the absence of chemical substance (yeast gene YDR497C): 0.4; The level of expressed mRNA in the presence of chemical substance/The level of expressed mRNA in the absence of chemical substance (yeast gene YDR502C): 1.6; The level of expressed mRNA in the presence of chemical substance/The level of expressed mRNA in the absence of chemical substance (yeast gene YDR516C): 1.8; level of expressed mRNA in the presence/in the absence of chemical substance (yeast gene YEL063C): 0.8; The level of expressed mRNA in the presence of chemical substance/The level of expressed mRNA in the absence of chemical substance (yeast gene YER026C): 0.9; The level of expressed mRNA in the presence of chemical substance/The level of expressed mRNA in the absence of chemical substance (yeast gene YER053C): 1.3; The level of expressed mRNA in the presence of chemical substance/The level of expressed mRNA in the absence of chemical substance (yeast gene YER069W): 0.8; level of expressed mRNA in the presence/in the absence of chemical substance (yeast gene YER081W): 1.8; The level of expressed mRNA in the presence of chemical substance/The level of expressed mRNA in the absence of chemical substance (yeast gene YER096W): 7.5; level of expressed mRNA in the presence/in the absence of chemical substance (yeast gene YER120W): 0.8
